The target of assay [1] is Mitogen-activated protein kinase kinase kinase kinase 4 (Homo sapiens, UniProt O95819). The class given is functional.
Assay [2] addresses Serine/threonine-protein kinase BRSK1 (Homo sapiens, UniProt Q8TDC3). It is filed as functional.
Assay [3] has as its target Serine/threonine-protein kinase pim-3 (Homo sapiens, UniProt Q86V86). The class given is functional.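 Also: value obtained as one member of a broad kinase panel profiling effort.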
Assay [4] has as its target Serine/threonine-protein kinase pim-1 (Homo sapiens, UniProt P11309). The class given is functional.
The target in assay [5] is Mitogen-activated protein kinase kinase kinase kinase 5 (Homo sapiens, UniProt Q9Y4K4). It is filed as functional.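 Also: measured as one member of a kinome-spanning kinase panel.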
Assay [6] addresses Glycogen synthase kinase-3 beta (Homo sapiens, UniProt P49841). It is filed as functional.
The target of assay [7] is Cysteine protease ATG4B (Homo sapiens, UniProt Q9Y4P1). It is filed as functional.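 Also: Fluorescence-based dose-response confirmation assay measuring inhibition of ATG4B activity.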
In assay [8] the target is Phospholipase A2 (Homo sapiens, UniProt P04054). It is filed as functional.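 Also: confirmatory dose-response counterscreen on phospholipase A2, testing hits that came from an ultra-high-throughput screen for ATG4B inhibitors.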
Assay [9] concerns H4. Briefly: Luminescence Cell-Based Dose Response HTS to Identify Activators of 5'UTR Stem-Loop Driven Prion Protein mRNA Translation in H4 Neuroglioblastoma Cells. [Related pubchem assays: 1829 (Project Summary), 1814 (Primary HTS)]. It is filed as functional. To be noted: Homo sapiens.
The nature of assay [10]: Luminescence Cell-Based Dose Response HTS to Identify Activators of Luciferase Translation or Activity in H4 […] Cells. [Related pubchem assays: 1829 (Project Summary), 1814 (Primary HTS)]. It is filed as functional.
Assay [11] can be described thus: Luminescence Cell-Based Dose Confirmation HTS to Identify Activators of 5'UTR Stem-Loop Driven Alpha-Synuclein mRNA Translation in H4 Neuroglioblastoma Cells. [Related pubchem assays: 1829 (Project Summary), 1814 (Primary HTS)]. It is filed as functional.
Assay [12] addresses Delta-type opioid receptor (Homo sapiens, UniProt P41143). Briefly: Counterscreen for agonists of heterodimerization of the mu 1 (OPRM1) and delta 1 (OPRD1) opioid receptors: Luminescence-based cell-based high throughput dose response assay to identify agonists of OPRD1 homodimerization. [Related pubchem assays (depositor defined):AID504326, AID504355, AID504692, AID504904, AID504905]. The class given is functional.

Assay [13] is described as follows: Trypanosoma cruzi growth suppression in host cells – NIH3T3 host cells, beta-gal luminescence, confirmation (AID 2044).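 Also: intracellular parasites grown in NIH/3T3 mouse fibroblasts as host cells; luminescent beta-galactosidase reporter signal from transgenic T. cruzi replicating inside host cells; inhibitors lower the luminescence signal.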 The class given is functional, cell-based.
A short description of assay [14]: cells. The class given is functional.
The nature of assay [15]: THP-1 cell cytotoxicity, dose response, cytotoxicity control for non-replicating M. tuberculosis project (AID 489025). It is filed as functional.
Assay [16] concerns the target 5-hydroxytryptamine receptor 5A (Homo sapiens, UniProt P47898). Briefly: Counterscreen for agonists of OPRM1-OPRD1 heterodimerization: luminescence-based cell-based high throughput dose response assay to identify agonists of 5-hydroxytryptamine (serotonin) 5A receptor (HTR5A). [Related pubchem assays (depositor defined):AID504326, AID504355, AID504692, AID504904, AID504905]. The class given is functional.

Assay [17] addresses Mu-type opioid receptor (Homo sapiens, UniProt P35372). The assay can be described thus: Counterscreen for agonists of heterodimerization of the mu 1 (OPRM1) and delta 1 (OPRD1) opioid receptors: Luminescence-based cell-based high throughput dose response assay to identify agonists of OPRM1 homodimerization. It is filed as functional.
A short description of assay [18]: NIH3T3 cell viability loss – ATP luminescence, mouse fibroblasts, counter-screen, dose response (AID 2010).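 Also: cells exposed to compound for about 90 hours before reading.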 It is filed as functional, cell-based.
Assay [19] in a line: Vero E6 cell cytotoxicity, dose response, cytotoxicity control for non-replicating M. tuberculosis project, secondary assay (AID 492998). To be noted: Vero C1008. The class given is functional, VeroE6.
Assay [20] is described as follows: HepG2 cell cytotoxicity, dose response, cytotoxicity control for non-replicating M. tuberculosis project (AID 489018). The class given is functional. Particulars: Mycobacterium tuberculosis.
Assay [21] has as its target Apoptotic protease-activating factor 1 (Homo sapiens, UniProt O14727). The class given is functional.
For assay [22], the target named is T1, Orexin receptor type 2 (Homo sapiens, UniProt O43614).
T1 sequence (O43614 whole entry): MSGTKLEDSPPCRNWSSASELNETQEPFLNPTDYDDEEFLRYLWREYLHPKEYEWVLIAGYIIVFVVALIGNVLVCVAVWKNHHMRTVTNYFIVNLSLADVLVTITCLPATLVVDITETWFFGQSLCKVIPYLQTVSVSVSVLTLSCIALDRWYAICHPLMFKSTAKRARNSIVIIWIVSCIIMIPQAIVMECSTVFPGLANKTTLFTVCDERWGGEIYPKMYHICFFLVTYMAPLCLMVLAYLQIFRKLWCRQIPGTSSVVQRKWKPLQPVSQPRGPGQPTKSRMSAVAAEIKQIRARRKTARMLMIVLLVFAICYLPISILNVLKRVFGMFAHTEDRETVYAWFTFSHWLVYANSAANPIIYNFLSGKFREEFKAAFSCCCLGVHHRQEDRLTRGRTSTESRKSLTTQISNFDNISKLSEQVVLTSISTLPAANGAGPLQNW
The assay can be described thus: Counterscreen assay for antagonists of the orexin 1 receptor (OX1R; HCRTR1): Fluorescence-based cell-based dose response assay for antagonists of the orexin 2 receptor (OX2R; HCRTR2), run by assay provider. The class given is functional.

Assay [23] is described as follows: Counterscreen for antagonists of the orexin 1 receptor (OX1R; HCRTR1): Fluorescence-based cell-based high throughput dose response assay to identify antagonists of the parental CHO cell line. [Related pubchem assays (depositor defined):AID434989, AID435008, AID463079, AID485270, AID492963, AID492964, AID492965, AID493232, AID504699, AID504701]. The class given is functional.

For assay [24], the target named is T1, Orexin receptor type 2. The assay can be described thus: Counterscreen assay for antagonists of the orexin 1 receptor (OX1R; HCRTR1): Homogeneous Time Resolved Fluorescence (HTRF)-based cell-based dose response assay for antagonists of the orexin 2 receptor (OX2R; HCRTR2), run by assay provider. The class given is functional.
In assay [25] the test system is CHO-K1. Briefly: Counterscreen for antagonists of the orexin 1 receptor (OX1R; HCRTR1): Homogeneous time resolved fluorescence (HTRF)-based cell-based dose response assay to identify antagonists of the parental CHO-K1 cell line. [Related pubchem assays (depositor defined):AID434989, AID435008, AID463079, AID485270, AID492963, AID492964, AID492965, AID493232, AID504699, AID504701]. Particulars: Cricetulus griseus. The class given is functional.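 Also: potency for inhibition of ATP-stimulated IP1 production as antagonists.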

The target in assay [26] is T2, Orexin/Hypocretin receptor type 1 (Homo sapiens, UniProt O43613).
T2 sequence (O43613 whole entry): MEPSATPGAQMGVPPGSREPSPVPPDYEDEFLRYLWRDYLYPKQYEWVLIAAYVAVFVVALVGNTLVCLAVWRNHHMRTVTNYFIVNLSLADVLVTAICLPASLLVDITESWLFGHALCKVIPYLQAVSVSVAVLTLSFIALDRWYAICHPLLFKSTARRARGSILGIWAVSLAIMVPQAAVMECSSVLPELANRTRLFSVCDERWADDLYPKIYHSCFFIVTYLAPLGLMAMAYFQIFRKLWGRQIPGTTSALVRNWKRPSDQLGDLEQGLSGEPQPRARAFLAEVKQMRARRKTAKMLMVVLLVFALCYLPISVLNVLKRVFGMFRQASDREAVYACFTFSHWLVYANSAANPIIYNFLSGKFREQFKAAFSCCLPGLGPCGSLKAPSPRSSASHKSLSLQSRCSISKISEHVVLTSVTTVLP
Briefly: Fluorescence-based cell-based high throughput dose response assay for antagonists of the orexin 1 receptor (OX1R; HCRTR1). [Related pubchem assays (depositor defined):AID434989, AID435008, AID463079, AID485270, AID492963, AID492964, AID492965, AID493232, AID504717, AID504718]. The class given is functional.

In assay [27] the target is T2, Orexin/Hypocretin receptor type 1. Briefly: Homogeneous Time Resolved Fluorescence (HTRF)-based cell-based high throughput dose response assay for antagonists of the orexin 1 receptor (OX1R; HCRTR1). [Related pubchem assays (depositor defined):AID434989, AID435008, AID463079, AID485270, AID492963, AID492964, AID492965, AID493232, AID504717, AID504718]. It is filed as functional.

Assay [28] concerns the target Beta-2 adrenergic receptor (Homo sapiens, UniProt P07550). Briefly: ADRB2 activation measured by internalization – cell-based, FAP fluorogen, flow cytometry, cherry pick 1, dose response (AID 588763). The class given is functional.

Molecules are shown by their SMILES. Where “and” joins values, the source holds several entries; their conditions need not be identical. Equal entries are not always repeated. Calls of active or inactive are those of the source.

Beta-2 adrenergic receptor, sequence (P07550 whole entry): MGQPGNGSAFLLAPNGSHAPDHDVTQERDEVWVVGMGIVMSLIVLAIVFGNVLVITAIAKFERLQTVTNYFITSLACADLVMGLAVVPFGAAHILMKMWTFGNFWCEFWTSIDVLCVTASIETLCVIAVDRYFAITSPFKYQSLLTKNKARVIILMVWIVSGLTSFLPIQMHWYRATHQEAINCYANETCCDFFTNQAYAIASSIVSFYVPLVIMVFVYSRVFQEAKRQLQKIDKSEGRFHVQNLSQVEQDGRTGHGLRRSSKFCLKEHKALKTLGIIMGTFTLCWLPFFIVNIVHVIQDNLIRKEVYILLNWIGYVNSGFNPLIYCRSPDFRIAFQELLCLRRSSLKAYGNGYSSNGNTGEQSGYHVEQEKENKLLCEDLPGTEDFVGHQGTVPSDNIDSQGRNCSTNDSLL
Cysteine protease ATG4B, sequence (Q9Y4P1 whole entry): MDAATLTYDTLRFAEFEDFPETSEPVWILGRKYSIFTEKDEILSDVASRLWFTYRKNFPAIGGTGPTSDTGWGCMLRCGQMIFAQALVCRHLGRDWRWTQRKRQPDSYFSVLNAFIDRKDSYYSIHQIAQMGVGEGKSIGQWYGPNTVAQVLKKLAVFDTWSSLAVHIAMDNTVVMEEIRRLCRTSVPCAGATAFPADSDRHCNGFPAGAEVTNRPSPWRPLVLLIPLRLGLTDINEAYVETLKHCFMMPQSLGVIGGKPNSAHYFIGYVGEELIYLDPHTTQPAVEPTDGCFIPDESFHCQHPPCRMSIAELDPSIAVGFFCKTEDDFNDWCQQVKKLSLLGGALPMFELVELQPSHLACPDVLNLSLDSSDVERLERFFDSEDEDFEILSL
Phospholipase A2, sequence (P04054 whole entry): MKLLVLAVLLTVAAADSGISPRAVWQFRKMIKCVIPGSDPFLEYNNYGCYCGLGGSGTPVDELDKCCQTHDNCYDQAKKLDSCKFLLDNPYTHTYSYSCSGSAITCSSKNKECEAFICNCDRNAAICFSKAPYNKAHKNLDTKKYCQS
Serine/threonine-protein kinase BRSK1, sequence (Q8TDC3 whole entry): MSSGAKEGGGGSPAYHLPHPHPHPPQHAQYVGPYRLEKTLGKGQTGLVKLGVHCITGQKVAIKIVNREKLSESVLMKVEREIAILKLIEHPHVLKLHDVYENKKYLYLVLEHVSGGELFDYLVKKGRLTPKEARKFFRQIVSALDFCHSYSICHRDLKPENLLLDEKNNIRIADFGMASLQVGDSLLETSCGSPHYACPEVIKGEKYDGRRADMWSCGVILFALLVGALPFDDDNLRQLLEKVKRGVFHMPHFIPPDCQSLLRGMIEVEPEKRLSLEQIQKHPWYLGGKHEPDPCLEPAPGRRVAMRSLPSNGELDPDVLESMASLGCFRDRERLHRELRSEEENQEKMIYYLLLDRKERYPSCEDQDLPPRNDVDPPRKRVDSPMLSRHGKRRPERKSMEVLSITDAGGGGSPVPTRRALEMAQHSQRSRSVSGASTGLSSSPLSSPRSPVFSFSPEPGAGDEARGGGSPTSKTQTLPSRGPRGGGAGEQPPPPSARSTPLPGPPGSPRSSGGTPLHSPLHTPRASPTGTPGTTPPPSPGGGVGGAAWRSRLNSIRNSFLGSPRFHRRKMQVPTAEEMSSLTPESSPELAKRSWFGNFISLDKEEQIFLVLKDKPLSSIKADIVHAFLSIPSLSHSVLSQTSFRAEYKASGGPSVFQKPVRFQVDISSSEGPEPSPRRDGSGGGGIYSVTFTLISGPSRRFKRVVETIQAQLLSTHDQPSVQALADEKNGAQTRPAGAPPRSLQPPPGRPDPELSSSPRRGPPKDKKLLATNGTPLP
Glycogen synthase kinase-3 beta, sequence (P49841 whole entry): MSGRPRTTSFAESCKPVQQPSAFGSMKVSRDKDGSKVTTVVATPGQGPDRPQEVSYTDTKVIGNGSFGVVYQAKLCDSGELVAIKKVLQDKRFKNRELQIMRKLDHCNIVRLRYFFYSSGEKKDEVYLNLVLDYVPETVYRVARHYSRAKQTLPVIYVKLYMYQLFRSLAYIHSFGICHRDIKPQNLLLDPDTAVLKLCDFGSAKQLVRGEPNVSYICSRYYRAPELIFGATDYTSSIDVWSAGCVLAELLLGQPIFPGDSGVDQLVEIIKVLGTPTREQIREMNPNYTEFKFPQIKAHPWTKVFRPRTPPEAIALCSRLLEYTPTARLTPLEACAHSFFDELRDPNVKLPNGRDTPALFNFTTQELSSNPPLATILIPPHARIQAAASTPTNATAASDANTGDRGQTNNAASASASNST
Mu-type opioid receptor, sequence (P35372 whole entry): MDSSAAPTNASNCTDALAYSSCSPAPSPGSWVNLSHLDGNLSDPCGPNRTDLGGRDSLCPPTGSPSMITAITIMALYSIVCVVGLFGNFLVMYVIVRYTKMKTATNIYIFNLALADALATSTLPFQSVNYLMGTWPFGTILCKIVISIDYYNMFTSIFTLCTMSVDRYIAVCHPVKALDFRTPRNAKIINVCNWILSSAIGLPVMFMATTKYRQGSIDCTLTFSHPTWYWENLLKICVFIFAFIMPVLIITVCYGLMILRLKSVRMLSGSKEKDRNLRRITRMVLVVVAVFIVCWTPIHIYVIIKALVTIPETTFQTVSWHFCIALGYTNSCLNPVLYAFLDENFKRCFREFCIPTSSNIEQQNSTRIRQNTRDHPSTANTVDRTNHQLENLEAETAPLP
5-hydroxytryptamine receptor 5A, sequence (P47898 whole entry): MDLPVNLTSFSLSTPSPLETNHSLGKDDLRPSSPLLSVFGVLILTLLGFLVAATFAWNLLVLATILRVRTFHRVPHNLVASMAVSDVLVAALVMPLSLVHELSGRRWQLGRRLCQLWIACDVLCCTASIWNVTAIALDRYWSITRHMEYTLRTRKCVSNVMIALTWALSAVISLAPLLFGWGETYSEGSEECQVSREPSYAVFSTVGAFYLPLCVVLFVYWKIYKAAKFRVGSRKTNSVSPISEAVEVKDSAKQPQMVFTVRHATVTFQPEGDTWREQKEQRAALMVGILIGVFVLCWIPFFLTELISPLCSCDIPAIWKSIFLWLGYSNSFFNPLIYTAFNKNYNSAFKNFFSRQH
Mitogen-activated protein kinase kinase kinase kinase 5, sequence (Q9Y4K4 whole entry): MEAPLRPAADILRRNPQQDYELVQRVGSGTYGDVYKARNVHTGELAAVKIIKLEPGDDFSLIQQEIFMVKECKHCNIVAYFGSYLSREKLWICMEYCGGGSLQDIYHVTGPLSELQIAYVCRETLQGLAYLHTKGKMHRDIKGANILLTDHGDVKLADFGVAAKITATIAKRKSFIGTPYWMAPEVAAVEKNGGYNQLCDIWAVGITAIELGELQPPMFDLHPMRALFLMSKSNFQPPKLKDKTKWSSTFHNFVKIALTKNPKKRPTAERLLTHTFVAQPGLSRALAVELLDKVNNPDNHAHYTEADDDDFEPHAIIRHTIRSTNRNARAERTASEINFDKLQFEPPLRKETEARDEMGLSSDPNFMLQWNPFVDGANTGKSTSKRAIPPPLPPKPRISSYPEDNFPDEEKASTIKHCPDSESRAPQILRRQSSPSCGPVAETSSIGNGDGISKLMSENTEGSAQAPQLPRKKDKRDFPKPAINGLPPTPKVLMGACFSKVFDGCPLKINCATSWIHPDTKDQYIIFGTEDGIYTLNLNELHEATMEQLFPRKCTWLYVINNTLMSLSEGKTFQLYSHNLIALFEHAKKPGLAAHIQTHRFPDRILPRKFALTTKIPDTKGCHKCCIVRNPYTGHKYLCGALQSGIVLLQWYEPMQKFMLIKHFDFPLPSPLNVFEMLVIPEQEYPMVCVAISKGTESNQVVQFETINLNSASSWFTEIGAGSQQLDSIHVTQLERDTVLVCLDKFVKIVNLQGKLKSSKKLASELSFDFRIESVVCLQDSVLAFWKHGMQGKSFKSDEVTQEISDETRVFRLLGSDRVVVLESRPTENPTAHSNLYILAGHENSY
Delta-type opioid receptor, sequence (P41143 whole entry): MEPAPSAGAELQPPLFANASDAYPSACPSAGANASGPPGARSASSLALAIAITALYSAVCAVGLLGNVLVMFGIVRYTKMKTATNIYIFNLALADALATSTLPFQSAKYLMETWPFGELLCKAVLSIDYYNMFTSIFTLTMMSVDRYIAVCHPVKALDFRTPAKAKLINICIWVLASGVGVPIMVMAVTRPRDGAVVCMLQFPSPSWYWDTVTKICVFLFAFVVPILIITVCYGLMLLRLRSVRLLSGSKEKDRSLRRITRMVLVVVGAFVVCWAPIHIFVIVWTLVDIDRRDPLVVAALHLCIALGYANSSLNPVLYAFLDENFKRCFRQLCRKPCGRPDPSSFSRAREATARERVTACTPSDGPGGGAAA
Serine/threonine-protein kinase pim-1, sequence (P11309 whole entry): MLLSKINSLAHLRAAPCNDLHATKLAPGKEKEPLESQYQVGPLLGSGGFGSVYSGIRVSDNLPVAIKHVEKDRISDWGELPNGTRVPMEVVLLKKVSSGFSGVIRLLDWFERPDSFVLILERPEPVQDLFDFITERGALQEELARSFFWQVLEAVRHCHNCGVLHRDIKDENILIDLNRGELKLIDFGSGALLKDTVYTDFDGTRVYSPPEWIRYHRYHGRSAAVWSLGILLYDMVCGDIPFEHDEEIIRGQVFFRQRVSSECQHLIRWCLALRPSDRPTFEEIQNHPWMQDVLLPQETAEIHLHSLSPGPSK

As to `O=c1cc(C(F)(F)F)c2c(-c3cccc(C(F)(F)F)c3)n[nH]c2[nH]1`, the Ki is 5.01 µM (active) in [1]; 7.94 µM (active) in assay [2]; 2 µM (active) in assay [3]; 5.01 µM (active) in assay [4]; 5.01 µM (active) in [5]; 5.01 µM (active) in [6].

As for `Cc1nn(Cc2c(Cl)cccc2Cl)c(C)c1NC(=O)CCCn1nc([N+](=O)[O-])c(Cl)c1C`, the IC50 was 9.88 µM (active) in assay [7] and 9.06 µM (active) in assay [8].

With `Cc1nn(Cc2c(F)c(F)c(F)c(F)c2F)c(C)c1NC(=O)c1ccc(COc2cc(Cl)ccc2Cl)cc1`, the EC50 is 3.37 µM (active) in assay [9], 7.73 µM (active) in assay [10] and > 120 µM (not active) in assay [11]. Besides, the IC50 was 0.532 µM (active) in [7] and 0.27 µM (active) in assay [8].

In the case of `CN1CCN(c2ccc(NC(=O)c3ccc(-c4ccc(Br)cc4)o3)cc2)CC1`, the EC50 in assay [12] is > 10.3 µM (inactive); in [13] it was 1.26 µM (active); in assay [16] it was > 92.5 µM (inactive); in assay [17] it was > 3.42 µM (active); in [18], > 60 µM (not active). Besides, the results for the IC50 in assay [14] and in assay [21] were 2.59 µM (active) and 37 µM (active), respectively. In addition, the CC50 in [15] was 16.7 µM (active); in [19], 13 µM (active); in assay [20], > 20 µM (active).

`Cc1cccc(-c2cc3nc(-c4ccccc4)cc(N4CCC5(CC4)OCCO5)n3n2)c1`: the IC50 was > 88.8 µM (inactive) in [22]; > 49.8 µM (inactive) in assay [23]; > 50 µM (inactive) in assay [24]; > 66.2 µM (inactive) in assay [25]; 12.6 µM (inactive) in assay [26]; 5.38 µM (active) in assay [27].

With `Cc1cccc(Nc2nnc(-c3ccc(C(=O)N4C[C@H]5C[C@H](C4)c4cccc(=O)n4C5)cc3)c3ccccc23)c1`, the EC50 in assay [28] is 2.12 µM (active) and 1.66 µM (active).

For the compound `CCOc1ccccc1C(=O)NCC(=O)OCc1csc(CC(=O)Nc2ccc(C)cc2)n1`, the EC50 in assay [28] is 228 nM (active).

In the case of `Cc1cccc(/C=N/NC(=O)c2cc3c(s2)-c2ccccc2CC3)c1`, the IC50 in assay [22] was > 88.8 µM (inactive); in assay [23], > 49.8 µM (inactive); in assay [24] it was > 50 µM (inactive); in [25], > 66.2 µM (inactive); in assay [26], 2.81 µM (active); in assay [27], 2.13 µM (active).

The values are drawn from ChEMBL document CHEMBL1201862, “PubChem BioAssay data set” (2004).
